Entries after “also recorded” stand apart in the source; their conditions may differ. Non-standard residues stand in square brackets, D forms with d. No end group written: not given here.
Columns and labels:
[1] = test system: Human cervical carcinoma cells Hela; assay: Telomere DNA damage in Hela cells under X-ray irradiation, detected by FISH; format: cell-based; settings: peptide 4 h; for telomere DNA damage caused by irradiation of X rays: 5-Gy X ray for 1 h
Experimental: Human cervical carcinoma cells Hela were respectively treated with various peptides (as shown in SEQ ID NOs:1-26 in Table 1) for 4 h, and then the cells treated with the same peptide were divided into two groups, which were respectively subjected to 0-Gy and 5-Gy irradiation of X ray for 1 h and detected for telomere DNA damage using fluorescence in situ hybridization (FISH).

[2] = test system: carbon tetrachloride-induced liver fibrosis in C57BL/6 mice; assay: DST8 in carbon tetrachloride-induced liver fibrosis in mice; format: in vivo; settings: 1 mg/kg intraperitoneal weekly, 4 weeks, Masson staining and Western Blot, control GE8
Experimental: 12 6 week old wild female C57BL/6 mice were equally divided into four groups, where two groups of mice were intraperitoneally injected with a solution of 10% carbon tetrachloride in olive oil three times a week (on every Monday, Wednesday and Friday, 5 μL per gram of body weight), and the other two groups of mice were intraperitoneally injected with an equal amount of olive oil as control. The two groups injected with carbon tetrachloride were intraperitoneally injected with DST8 (SerArgAsnGlyThrGluGluThr, in D-amino acids), 1 mg per kilogram of body weight) and GE8 (SEQ ID NO:24), respectively, 4 hours before the first injection of carbon tetrachloride in each week. The two control groups were also intraperitoneally injected with DST8 (1 mg per kilogram of body weight) and GE8, respectively, 4 hours before the first injection of olive oil in each week. After 4 consecutive weeks of administration, the liver was isolated, embedded with paraffin, sectioned and subjected to Masson staining and Western Blot analysis.

[3] = test system: bleomycin-induced pulmonary fibrosis in mice; assay: ST8 in bleomycin-induced pulmonary fibrosis in mice (intratracheal perfusion); format: in vivo
Experimental: 4 hours later, the mice were all intratracheally perfused with bleomycin (3 mg per kilogram of body weight), and 21 days after the perfusion of peptide, the mice were subjected to endotracheal intubation for the detection of respiratory function. The type II cells were sorted by flow cytometry and calculated for the proportion. The lung tissue RNA was extracted and subjected to real-time quantitative PCR for the detection of mRNA expression of NG2, […], s100a4, α-SMA and Col6a, and the lung proteins were also extracted and detected by Western Blot for the expression of FBW7, TPP1, α-SMA and internal reference GAPDH. The lung tissues were embedded with paraffin, sectioned, subjected to Masson and H&E staining and detected by immunofluorescence assay for the expression of α-SMA. Moreover, 10 mg of lung tissues were employed for the determination of hydroxyproline content; and the telomere length of type II cells (SPC+telomere probe) was detected by FISH.

[4] = test system: mice with overexpression of FBW7 in lung tissues; assay: ST8 in mice intratracheally perfused with FBW7-lentivirus (overexpression of FBW7 in lung); format: in vivo; settings: control GE8
Experimental: 4 hours later, the two groups of mice perfused with ST8 were respectively intratracheally perfused with a control- or FBW7-lentivirus, and the two groups of mice perfused with GE8 were also respectively intratracheally perfused with the control- or FBW7-lentiviruses. The perfusion was performed every other 4 days in a total number of 4. On the fourth day after the fourth perfusion, the mice were subjected to endotracheal intubation for the detection of respiratory function. The type II cells were sorted by flow cytometry and calculated for the proportion. The lung tissue RNA was extracted and subjected to real-time quantitative PCR for the detection of mRNA expression of α-SMA, Col6a, and MMP3, and the lung proteins were also extracted and detected by Western Blot for the expression of FBW7, TPP1, SPC, α-SMA and internal reference GAPDH. The lung tissues were embedded with paraffin, sectioned, subjected to Masson and H&E staining and detected by immunofluorescence assay for the expression of α-SMA. Moreover, the proportion of lung type II epithelial cells (SPC positive cells) was obtained by immunofluorescence assay; and the telomere length of type II cells (SPC+telomere probe) was detected by FISH.

[5] = test system: mice under X-ray irradiation; assay: DYK21 applied to dorsal skin of mice with or without X-ray irradiation (skin aging, weight loss, premature death)
Description: 48 2-4 month old wild mice were equally divided into four groups, and the hair in a 2 cm×2 cm region on the back of each of the mice was removed. […] The mice were photographed and weighed every day, and sacrificed on the 8th day to collect the skin tissues.

[6] = test system: bleomycin-induced pulmonary fibrosis in mice; assay: YK21 in bleomycin-induced pulmonary fibrosis in mice (intratracheal perfusion); format: in vivo
Experimental: The time program of this experiment was shown in FIG. 1E, specifically, 4 hours later, the mice were all intratracheally perfused with bleomycin (3 mg per kilogram of body weight), and 20 hours after the perfusion of bleomycin, two groups of mice were respectively received a second perfusion of YK21 and a second perfusion of YK21h. After 21 days of the first perfusion of peptide, the mice were all subjected to endotracheal intubation for the detection of respiratory function, and the lung tissue RNA was extracted and subjected to real-time quantitative PCR to detect the mRNA expression of TPP1 and SPC. The lung tissues were embedded with paraffin, sectioned, subjected to Masson and H&E staining and detected by immunofluorescence assay for the expression of α-SMA. Moreover, 10 mg of lung tissues were employed for the determination of hydroxyproline content; and the telomere length of alveolar epithelial type II stem cells (SPC+telomere probe) and the telomere DNA damage in lung tissues (53BP1+telomere probe) were detected by FISH.

[7] = dorsal skin application 7 days, 4-Gy X-ray daily, compared to DCTL1
[8] = lung tissue mRNA, real-time quantitative PCR, bleomycin mice, vs YK21h

In the case of KTEETGNRSGRRRQRRKKRGY [DKY21], the “telomere DNA damage caused by irradiation of X rays” value (“telomere DNA damage caused” below) [1] is reported as “inhibitory effect”.

SRNGTEET [DST8] was tested, and the “liver fibrosis caused by carbon tetrachloride” value [2] was “prevent the liver fibrosis; also recorded: significantly inhibit”.

For SRNGTEET [ST8], the “telomere DNA damage caused” value [1] was “significantly inhibiting”, the “respiratory dysfunction in mice caused by bleomycin” value ([3]; 1 mg/kg intratracheal, bleomycin 3 mg/kg, day 21, control GE8) was “alleviate” and the “telomere length of type II cells” value ([3]; FISH, bleomycin mice, control GE8) was “extend the telomere”. For the same substance, the “bleomycin-induced pulmonary fibrosis in mice” value ([3]; Masson, H&E, α-SMA, fibrosis marker mRNA, control GE8) was “inhibitory effect”, the “FBW7 expression in lung” value ([3]; Western Blot, bleomycin mice, control GE8) was “inhibit FBW7” and the “proportion of lung type II epithelial cells” value ([3]; flow cytometry, bleomycin mice, control GE8) was “improved”. The “respiratory dysfunction caused by the overexpression of FBW7” value ([4]; 1 mg/kg intratracheal, FBW7-lentivirus perfused 4 times) was “significant role in alleviating”, the “decrease in the proportion of type II epithelial cells caused by the overexpression of FBW7” value ([4]; FBW7-lentivirus mice) was “significant role in alleviating” and the “pulmonary fibrosis caused by the overexpression of FBW7” value ([4]; FBW7-lentivirus mice) was “significant role in alleviating”. The “reduction in the expression of TPP1 caused by the overexpression of FBW7” value ([4]; FBW7-lentivirus mice) was “significant role in alleviating” and the “telomere shortening caused by the overexpression of FBW7” value ([4]; FISH, FBW7-lentivirus mice) was “significant role in alleviating”.

For “TyrGlyArgLysLysArgArgGluArgArgArgGlySerArgAsnGlyThrGluGluThrLys [DYK21] ([dY]G[dR][dK][dK][dR][dR][dE][dR][dR][dR]G[dS][dR][dN]G[dT][dE][dE][dT][dK])”, the “telomere DNA damage caused” value [1] was “inhibitory effect”, the “skin damage and fibrous tissue proliferation (skin fibrosis) caused by X-ray irradiation” value ([5]; H&E and Masson staining, 4-Gy X-ray daily for 7 days, vs DCTL1) was “completely free of skin fibrosis; also recorded: significant inhibitory effect” and the “number of dermal stem cells” value ([5]; application to the dorsal skin of mice) was “significant increase”. For the same substance, the “number of hair follicles” value ([5]; application to the dorsal skin of mice, irradiation not mentioned) was “significant increase”, the “acute death caused by X-ray irradiation” value ([5]; compared to DCTL1) was “alleviated the acute death to some extent” and the “life span under X-ray irradiation” value ([5]; compared to DCTL1) was “prolonged the life of some mice”. The “weight loss caused by X-ray irradiation” value ([5]; compared to DCTL1) was “inhibited the weight loss”, the body weight [5, 7] was “larger in body weight” and the “number of hair follicles” value [5, 7] was “more hair follicles”. For the same substance, the fibrosis area ([5]; skin, X-ray irradiation, vs DCTL1) was “smaller fibrosis area”.

YGRKKRRERRRGSRNGTEETK was tested, and the “telomere DNA damage at a basic level” value ([1]; 0-Gy) was “significantly reduce”, the “telomere DNA damage caused” value [1] was “completely inhibit” and the “respiratory function in mice” value ([6]; 1 mg/kg intratracheal, bleomycin 3 mg/kg, day 21, compared to control peptide YK21h) was “improve the lung respiratory function; also recorded: significantly improve”. For the same substance, the “pulmonary fibrosis induced by bleomycin” value ([6]; 1 mg/kg intratracheal, bleomycin 3 mg/kg, day 21, hydroxyproline, Masson, H&E, α-SMA, vs YK21h) was “prevent the lung aging damage and pulmonary fibrosis; also recorded: inhibit”, the “telomere length of type II epithelial cells” value ([6]; FISH (SPC+telomere probe), bleomycin mice, vs YK21h) was “extend telomere length; also recorded: increase” and the “number of lung stem cells” value ([6]; intratracheal administration to mice in one time) was “increase the number of lung stem cells”. The “expression of SPC” value [6, 8] was “increase” and the “expression of TPP1” value [6, 8] was “increase”.
